We go through 26 compounds from US8501794B2, “Compounds as cannabinoid receptor ligands” (priority 2007, dated 2013).

Assay [1] concerns the target T1, human CB2 receptors (Homo sapiens, UniProt P34972).
T1 construct: expressed in transfected cells; host or cells: HEK293
In words: human CB2 radioligand binding assay ([3H]CP-55,940 competition).

Assay [2] addresses T2, rat CB2 (Rattus norvegicus, UniProt Q9QZN9).
T2 sequence (Q9QZN9 1-360): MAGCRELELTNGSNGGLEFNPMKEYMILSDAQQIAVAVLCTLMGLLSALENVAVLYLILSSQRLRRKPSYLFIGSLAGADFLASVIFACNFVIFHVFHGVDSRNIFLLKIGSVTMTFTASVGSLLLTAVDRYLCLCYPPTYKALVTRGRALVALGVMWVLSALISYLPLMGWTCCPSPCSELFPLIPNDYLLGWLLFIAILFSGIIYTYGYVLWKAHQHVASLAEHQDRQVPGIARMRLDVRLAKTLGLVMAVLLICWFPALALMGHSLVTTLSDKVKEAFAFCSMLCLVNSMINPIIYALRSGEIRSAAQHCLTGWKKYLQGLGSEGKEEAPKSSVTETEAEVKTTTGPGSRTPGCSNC
In words: rat CB2 radioligand binding assay ([3H]CP-55,940 competition). More on the design: expressed in transfected cells; host or cells: HEK293.

Where [3] appears, read: HEK293 membranes, 0.5 nM [3H]CP-55,940, read-out: human CB2 (Ki).

Like-named read-outs stand apart in the source and are kept apart here.

T1 sequence (P34972 whole entry): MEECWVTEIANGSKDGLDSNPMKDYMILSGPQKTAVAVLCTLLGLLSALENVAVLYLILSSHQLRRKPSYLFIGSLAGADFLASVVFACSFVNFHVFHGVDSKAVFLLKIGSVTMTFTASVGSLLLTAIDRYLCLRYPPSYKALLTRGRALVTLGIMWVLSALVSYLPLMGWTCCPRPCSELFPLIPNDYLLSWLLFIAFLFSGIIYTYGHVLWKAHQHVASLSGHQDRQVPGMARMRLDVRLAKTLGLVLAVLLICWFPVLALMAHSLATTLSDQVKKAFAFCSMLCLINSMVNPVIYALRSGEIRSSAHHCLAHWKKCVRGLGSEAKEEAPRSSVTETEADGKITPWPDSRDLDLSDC

For orientation: Ki means a dissociation constant, usually derived from enzyme kinetics or from competition with a known ligand. As for `CCCCc1cn(C(C)(C)C)s/c1=N\C(=O)[C@@H]1CC[C@](C)(NC(=O)NC)C1(C)C` [Example 247, (1R,3S)—N-[(5Z)-4-butyl-2-tert-butylisothiazol-5(2H)-ylidene]-2,2,3-trimethyl-3-{[(methylamino)carbonyl]amino}cyclopentanecarboxamide], the inhibition constant (Ki) in assay [1] was determined as 41 nM; in assay [2] it was 40 nM.

With `CCCCc1cn(C(C)(C)C)s/c1=N\C(=O)C1(c2ccccc2)CCCC1` [Example 98, N-[(5Z)-4-butyl-2-tert-butylisothiazol-5(2H)-ylidene]-1-phenylcyclopentanecarboxamide], the Ki in assay [1] came out at 10 nM; in assay [2], 4.8 nM.

`CCCCc1cn(C(C)(C)C)s/c1=N\C(=O)[C@@]1(C)CC[C@@H](C2=NCCO2)C1(C)C` [Example 231, (1S,3R)—N-[(5Z)-4-butyl-2-tert-butylisothiazol-5(2H)-ylidene]-3-(4,5-dihydro-1,3-oxazol-2-yl)-1,2,2-trimethylcyclopentanecarboxamide]: the Ki in assay [1] was 51 nM; in assay [2], 11 nM.

With `CCCCc1cn(C(C)(C)C)s/c1=N\C(=O)[C@]1(C)CC[C@H](C(=O)NCc2cccnc2)C1(C)C` [Example 235, (1R,3S)—N^1-[(5Z)-4-butyl-2-tert-butylisothiazol-5(2H)-ylidene]-1,2,2-trimethyl-N^3-(pyridin-3-ylmethyl)cyclopentane-1,3-dicarboxamide], the Ki in assay [1] (setting [3]) was found to be 320 nM; in assay [2] (HEK293 membranes, 0.5 nM [3H]CP-55,940, read-out: rat CB2 (Ki)) it was 258 nM.

Turning to `C#CCNC(=O)[C@@H]1CC[C@](C)(C(=O)/N=c2\sn(C(C)(C)C)cc2CCCC)C1(C)C` [Example 239, (1S,3R)—N^1-[(5Z)-4-butyl-2-tert-butylisothiazol-5(2H)-ylidene]-1,2,2-trimethyl-N^3-prop-2-ynylcyclopentane-1,3-dicarboxamide], the Ki in assay [1] was 72 nM; in assay [2], 70 nM.

Take `CCCCc1cn(C(C)(C)C)s/c1=N\C(=O)c1cc(C#N)ccc1OCC(F)(F)F` [Example 130, N-[(5Z)-4-butyl-2-tert-butylisothiazol-5(2H)-ylidene]-5-cyano-2-(2,2,2-trifluoroethoxy)benzamide]: the inhibitory constant (Ki) in assay [1] came out at 81 nM; in assay [2], 2.8 nM.

As to `COc1ccc(Cl)cc1C(=O)/N=c1\sn(C(C)(C)C)cc1Cc1cccs1` [Example 54, N-[(5Z)-2-tert-butyl-4-(thien-2-ylmethyl)isothiazol-5(2H)-ylidene]-5-chloro-2-methoxybenzamide], the Ki in assay [1] worked out at 17 nM; in assay [2] it was 1 nM.

On to `C#Cc1ccc(OC)c(C(=O)/N=c2\sn(C(C)(C)C)cc2CCCC)c1` [Example 62, N-[(5Z)-4-butyl-2-tert-butylisothiazol-5(2H)-ylidene]-5-ethynyl-2-methoxybenzamide], for which the inhibitory constant (Ki) came to 27 nM in assay [1] and 3.1 nM in assay [2].

Regarding `CCCCc1cn(C2(C)CCC2)s/c1=N\C(=O)c1cc(Cl)ccc1OC` [Example 5, N-[(5Z)-4-butyl-2-(1-methylcyclobutyl)isothiazol-5(2H)-ylidene]-5-chloro-2-methoxybenzamide], the Ki was determined as 30 nM in assay [1] and 2.2 nM in assay [2].

In the case of `CCCCc1cn(C(C)(C)C)s/c1=N\C(=O)[C@]1(C)CC[C@H](C(=O)NC[C@@H]2CCCO2)C1(C)C` [Example 226, (1R,3S)—N^1-[(5Z)-4-butyl-2-tert-butylisothiazol-5(2H)-ylidene]-1,2,2-trimethyl-N^3-[(2S)-tetrahydrofuran-2-ylmethyl]cyclopentane-1,3-dicarboxamide], the inhibition constant (Ki) is 250 nM in assay [1] and 132 nM in assay [2].

`CCCCc1cn(C(C)(C)C)s/c1=N\C(=O)c1cc(OC(F)(F)F)ccc1OC` [Example 63, N-[(5Z)-4-butyl-2-tert-butylisothiazol-5(2H)-ylidene]-2-methoxy-5-(trifluoromethoxy)benzamide]: the Ki is 33 nM in assay [1] and 3.4 nM in assay [2].

With `CCCCc1cn(C(C)(C)C)s/c1=N\C(=O)N[C@H](C(=O)NC)C(C)(C)C` [Example 190, N^2-({[(5Z)-4-butyl-2-tert-butylisothiazol-5(2H)-ylidene]amino}carbonyl)-N^1,3-dimethyl-L-valinamide], the Ki in assay [1] and in assay [2] was 2.4 nM in each case.

On to `CCC1CC1c1cn(C(C)(C)C)s/c1=N\C(=O)c1cc(Cl)ccc1OC` (stereo not shown) [Example 27, N-[(5Z)-2-tert-butyl-4-(2-ethylcyclopropyl)isothiazol-5(2H)-ylidene]-5-chloro-2-methoxybenzamide], for which the values for the Ki in assay [1] (setting [3]) and in assay [2] were 240 nM and 23 nM, respectively.

`COc1ccc(Cl)cc1C(=O)/N=c1\sn(C(C)(C)C)cc1C(O)c1cccs1` (stereo not shown) [Example 44, N-[(5Z)-2-tert-butyl-4-[hydroxy(thien-2-yl)methyl]isothiazol-5(2H)-ylidene]-5-chloro-2-methoxybenzamide]: the inhibition constant (Ki) in assay [1] is 27 nM; in assay [2], 2.1 nM.

Consider `CCCCc1cn(C(C)(C)C)s/c1=N\C(=O)[C@]1(C)CC[C@H](C(=O)N2CC(F)(F)C2)C1(C)C` [Example 185, (1R,3S)—N-[(5Z)-4-butyl-2-tert-butylisothiazol-5(2H)-ylidene]-3-[(3,3-difluoroazetidin-1-yl)carbonyl]-1,2,2-trimethylcyclopentanecarboxamide], for which the Ki in assay [1] (setting [3]) stood at 113 nM; in assay [2], 49 nM.

As for `CCCCc1cn(C(C)(C)C)s/c1=N\C(=O)[C@@H]1CC[C@](C)(NC(N)=O)C1(C)C` [Example 246, (1R,3S)-3-[(aminocarbonyl)amino]-N-[(5Z)-4-butyl-2-tert-butylisothiazol-5(2H)-ylidene]-2,2,3-trimethylcyclopentanecarboxamide], the Ki in assay [1] (setting [3]) is 150 nM; in assay [2], 38 nM.

Take `CCCCc1cn(C(C)(C)C)s/c1=N\C(=O)[C@H]1CC[C@@](C)(C2=NCCO2)C1(C)C` [Example 232, (1S,3R)—N-[(5Z)-4-butyl-2-tert-butylisothiazol-5(2H)-ylidene]-3-(4,5-dihydro-1,3-oxazol-2-yl)-2,2,3-trimethylcyclopentanecarboxamide]: the values for the Ki in assay [1] and in assay [2] were 45 nM and 18 nM, respectively.

As for `CCCCc1cn(C(C)(C)C)s/c1=N\C(=O)[C@@]1(C)CC[C@@H](NC(N)=O)C1(C)C` [Example 253, (1S,3R)-3-[(aminocarbonyl)amino]-N-[(5Z)-4-butyl-2-tert-butylisothiazol-5(2H)-ylidene]-1,2,2-trimethylcyclopentanecarboxamide], the figures for the Ki in assay [1] and in assay [2] were 160 nM and 45 nM, respectively.

In the case of `C#CCNC(=O)[C@H]1CC[C@@](C)(C(=O)/N=c2\sn(C(C)(C)C)cc2CCCC)C1(C)C` [Example 237, (1R,3S)—N^1-[(5Z)-4-butyl-2-tert-butylisothiazol-5(2H)-ylidene]-1,2,2-trimethyl-N^3-prop-2-ynylcyclopentane-1,3-dicarboxamide], the values for the Ki in assay [1] and in assay [2] were 23 nM and 18 nM, respectively.

With `CCCCc1cn(C(C)(C)C)s/c1=N\C(=O)[C@H]1CC[C@@](C)(C(=O)O)C1(C)C` [Example 181, (1R,3S)-3-({[(5Z)-4-butyl-2-tert-butylisothiazol-5(2H)-ylidene]amino}carbonyl)-1,2,2-trimethylcyclopentanecarboxylic acid], the results for the Ki in assay [1] and in assay [2] were 160 nM and 15 nM, respectively.

Turning to `CCCCc1cn(C(C)(C)C)s/c1=N\C(=O)[C@]1(C)CC[C@H](NC(=O)N(C)c2ccccc2)C1(C)C` [Example 264, (1R,3S)—N-[(5Z)-4-butyl-2-tert-butylisothiazol-5(2H)-ylidene]-1,2,2-trimethyl-3-({[methyl(phenyl)amino]carbonyl}amino)cyclopentanecarboxamide], the inhibitory constant (Ki) was 11 nM in assay [1] and 33 nM in assay [2].

On to `COc1ccc(Cl)cc1C(=O)/N=c1\sn(C(C)(C)C)cc1C(O)CC1CCC1` (stereo not shown) [Example 33, N-[(5Z)-2-tert-butyl-4-(2-cyclobutyl-1-hydroxyethyl)isothiazol-5(2H)-ylidene]-5-chloro-2-methoxybenzamide], for which the Ki in assay [1] worked out at 3.7 nM; in assay [2], 1 nM.

On to `CCCCc1cn(C(C)(C)C)s/c1=N\C(=O)[C@]1(C)CC[C@H](NC(=O)c2ccccc2)C1(C)C` [Example 251, N-[(1S,3R)-3-({[(5Z)-4-butyl-2-tert-butylisothiazol-5(2H)-ylidene]amino}carbonyl)-2,2,3-trimethylcyclopentyl]benzamide], for which the Ki in assay [1] and in assay [2] was 60 nM throughout.

`CCCCc1cn(C(C)(C)C)s/c1=N\C(=O)c1cc(C(F)(F)F)ccc1OCC(C)(C)O` [Example 262, N-[(5Z)-4-butyl-2-tert-butylisothiazol-5(2H)-ylidene]-2-(2-hydroxy-2-methylpropoxy)-5-(trifluoromethyl)benzamide]: the Ki is 6 nM in assay [1] and 4.4 nM in assay [2].

For the compound `CCCCc1cn(C(C)(C)C)s/c1=N\C(=O)[C@]1(C)CC[C@H](C2=NCCCO2)C1(C)C` [Example 243, (1R,3S)—N-[(5Z)-4-butyl-2-tert-butylisothiazol-5(2H)-ylidene]-3-(5,6-dihydro-4H-1,3-oxazin-2-yl)-1,2,2-trimethylcyclopentanecarboxamide], the Ki in assay [1] was found to be 41 nM; in assay [2], 14 nM.

Consider `CCCCc1cn(C(C)(C)C)s/c1=N\C(=O)[C@]1(C)CC[C@H](C(=O)N2CC(O)C2)C1(C)C` [Example 180, (1R,3S)—N-[(5Z)-4-butyl-2-tert-butylisothiazol-5(2H)-ylidene]-3-[(3-hydroxyazetidin-1-yl)carbonyl]-1,2,2-trimethylcyclopentanecarboxamide], for which the Ki in assay [1] (setting [3]) came out at 260 nM; in assay [2], 37 nM.
